Reference: publication PMC7419507, “In vitro Cas9-assisted editing of modular polyketide synthase genes to produce desired natural product derivatives” (Nature Communications, 2020)
“And” between values parts separate entries of the source, which are not always exact repeats. Identical values can stand only once.

Tests used:
[1] = Cytotoxicity assay (CellTiter-Glo, 72 h), Jurkat; type: cell-based; conditions: human, Jurkat cells (T lymphoma); for viability at 72 h, 9.53674e-05 uM: conc 9.53674e-5 uM; for viability at 72 h, 9.53674e-05 uM / viability at 72 h, 0.000190735 uM / viability at 72 h, 0.00038147 uM / viability at 72 h, 0.000762939 uM / viability at 72 h, 0.00152588 uM / viability at 72 h, 0.00305176 uM / viability at 72 h, 0.00610352 uM / viability at 72 h, 0.012207 uM / viability at 72 h, 0.0244141 uM / viability at 72 h, 0.0488281 uM / viability at 72 h, 0.0976562 uM / viability at 72 h, 0.195312 uM / viability at 72 h, 0.390625 uM / viability at 72 h, 0.78125 uM / viability at 72 h, 1.5625 uM / viability at 72 h, 3.125 uM / viability at 72 h, 6.25 uM / viability at 72 h, 12.5 uM / viability at 72 h, 25 uM / viability at 72 h, 50 uM: raw data (replicates); for viability at 72 h, 0.000190735 uM: conc 0.000190735 uM; for viability at 72 h, 0.00038147 uM: conc 0.00038147 uM; for viability at 72 h, 0.000762939 uM: conc 0.000762939 uM; for viability at 72 h, 0.00152588 uM: conc 0.00152588 uM; for viability at 72 h, 0.00305176 uM: conc 0.00305176 uM; for viability at 72 h, 0.00610352 uM: conc 0.00610352 uM; for viability at 72 h, 0.012207 uM: conc 0.012207 uM; for viability at 72 h, 0.0244141 uM: conc 0.0244141 uM; for viability at 72 h, 0.0488281 uM: conc 0.0488281 uM; for viability at 72 h, 0.0976562 uM: conc 0.0976562 uM; for viability at 72 h, 0.195312 uM: conc 0.195312 uM; for viability at 72 h, 0.390625 uM: conc 0.390625 uM; for viability at 72 h, 0.78125 uM: conc 0.78125 uM; for viability at 72 h, 1.5625 uM: conc 1.5625 uM; for viability at 72 h, 3.125 uM: conc 3.125 uM; for viability at 72 h, 6.25 uM: conc 6.25 uM; for viability at 72 h, 12.5 uM: conc 12.5 uM; for viability at 72 h, 25 uM: conc 25 uM; for viability at 72 h, 50 uM: conc 50 uM
How it was run: (§1)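 Cells were seeded at 1000 cells/well and allowed 4 h at 37 °C, 5% CO2 before 2-fold compound dilutions in DMSO were added (0.5% final DMSO). After 72 h exposure, viability was read by CellTiter-Glo luminescence.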

T lymphoma Jurkat cells = assay: Cytotoxicity assay (CellTiter-Glo, 72 h), Jurkat; type: cell-based; conditions: raw data (replicates)
How it was run: as §1

Compound: COC1CC2CCC(C)C(O)(O2)C(=O)C(=O)N2CCCCC2C(=O)OC(C(C)CC2CCC(O)C(OC)C2)CC(O)CC(=O)C(C)C=C(C)C(O)CC(=O)C(C)CC(C)C=CC=CC=C1C (stereo not drawn) [Compound 13]
- viability at 72 h, 9.53674e-05 uM [1]: 100%
- viability at 72 h, 0.000190735 uM [1]: 100%
- viability at 72 h, 0.00038147 uM [1]: 108%
- viability at 72 h, 0.000762939 uM [1]: 103%
- viability at 72 h, 0.00152588 uM [1]: 98.1%
- viability at 72 h, 0.00305176 uM [1]: 102%
- viability at 72 h, 0.00610352 uM [1]: 100%
- viability at 72 h, 0.012207 uM [1]: 99.4%
- viability at 72 h, 0.0244141 uM [1]: 103%
- viability at 72 h, 0.0488281 uM [1]: 91.3%
- viability at 72 h, 0.0976562 uM [1]: 69.5%
- viability at 72 h, 0.195312 uM [1]: 47.2%
- viability at 72 h, 0.390625 uM [1]: 37.5%
- viability at 72 h, 0.78125 uM [1]: 31.7%
- viability at 72 h, 1.5625 uM [1]: 30.7%
- viability at 72 h, 3.125 uM [1]: 30.2%
- viability at 72 h, 6.25 uM [1]: 29.2%
- viability at 72 h, 12.5 uM [1]: 30.8%
- viability at 72 h, 25 uM [1]: 24.7%
- viability at 72 h, 50 uM [1]: 2.2%
- Jurkat viability (%) (T lymphoma Jurkat cells; conc 9.53674e-5 uM): 112.6% and 105.4%
- Jurkat viability (%) (T lymphoma Jurkat cells; conc 0.000190735 uM): 101.3% and 101.6%
- Jurkat viability (%) (T lymphoma Jurkat cells; conc 0.00038147 uM): 104.4% and 104.8%
- Jurkat viability (%) (T lymphoma Jurkat cells; conc 0.000762939 uM): 96.6% and 102.2%
- Jurkat viability (%) (T lymphoma Jurkat cells; conc 0.00152588 uM): 101.0% and 107.9%
- Jurkat viability (%) (T lymphoma Jurkat cells; conc 0.00305176 uM): 103.0% and 101.6%
- Jurkat viability (%) (T lymphoma Jurkat cells; conc 0.00610352 uM): 107.7% and 103.5%
- Jurkat viability (%) (T lymphoma Jurkat cells; conc 0.012207 uM): 102.1% and 101.9%
- Jurkat viability (%) (T lymphoma Jurkat cells; conc 0.0244141 uM): 102.7% and 105.0%
- Jurkat viability (%) (T lymphoma Jurkat cells; conc 0.0488281 uM): 92.1% and 89.3%
- Jurkat viability (%) (T lymphoma Jurkat cells; conc 0.0976562 uM): 67.5% and 74.1%
- Jurkat viability (%) (T lymphoma Jurkat cells; conc 0.195312 uM): 42.7% and 42.9%
- Jurkat viability (%) (T lymphoma Jurkat cells; conc 0.390625 uM): 37.1% and 36.6%
- Jurkat viability (%) (T lymphoma Jurkat cells; conc 0.78125 uM): 31.2% and 32.9%
- Jurkat viability (%) (T lymphoma Jurkat cells; conc 1.5625 uM): 32.3%
- Jurkat viability (%) (T lymphoma Jurkat cells; conc 3.125 uM): 28.8% and 27.1%
- Jurkat viability (%) (T lymphoma Jurkat cells; conc 6.25 uM): 32.0% and 30.5%
- Jurkat viability (%) (T lymphoma Jurkat cells; conc 12.5 uM): 29.9%
- Jurkat viability (%) (T lymphoma Jurkat cells; conc 25 uM): 25.3% and 24.9%
- Jurkat viability (%) (T lymphoma Jurkat cells; conc 50 uM): 1.7% and 1.8%

Compound: COC1CC2CCC(C)C(O)(O2)C(=O)C(=O)N2CCCCC2C(=O)OC(C(C)CC2CCC(O)C(OC)C2)CCC(C)C=C(C)C(O)C(OC)C(=O)C(C)CC(C)C=CC=CC=C1C (stereo not drawn) [Compound 16, 32-desketorapamycin]
- viability at 72 h ([1]; 72 h, read-out: Plateau level of cell viability in the dose-response curve): ~25%
- viability at 72 h, 9.53674e-05 uM [1]: 104%
- viability at 72 h, 0.000190735 uM [1]: 86.9%
- viability at 72 h, 0.00038147 uM [1]: 91.3%
- viability at 72 h, 0.000762939 uM [1]: 67.7%
- viability at 72 h, 0.00152588 uM [1]: 56.5%
- viability at 72 h, 0.00305176 uM [1]: 40.9%
- viability at 72 h, 0.00610352 uM [1]: 34.9%
- viability at 72 h, 0.012207 uM [1]: 28.9%
- viability at 72 h, 0.0244141 uM [1]: 30.6%
- viability at 72 h, 0.0488281 uM [1]: 25.7%
- viability at 72 h, 0.0976562 uM [1]: 24%
- viability at 72 h, 0.195312 uM [1]: 24.3%
- viability at 72 h, 0.390625 uM [1]: 25.2%
- viability at 72 h, 0.78125 uM [1]: 22.1%
- viability at 72 h, 1.5625 uM [1]: 21.9%
- viability at 72 h, 3.125 uM [1]: 20.3%
- viability at 72 h, 6.25 uM [1]: 20.4%
- viability at 72 h, 12.5 uM [1]: 11.9%
- viability at 72 h, 25 uM [1]: 2%
- viability at 72 h, 50 uM [1]: 0.248%
- Jurkat viability (%) (T lymphoma Jurkat cells; conc 9.53674e-5 uM): 101.4% and 98.2%
- Jurkat viability (%) (T lymphoma Jurkat cells; conc 0.000190735 uM): 92.4% and 84.6%
- Jurkat viability (%) (T lymphoma Jurkat cells; conc 0.00038147 uM): 90.4% and 75.5%
- Jurkat viability (%) (T lymphoma Jurkat cells; conc 0.000762939 uM): 69.2% and 63.8%
- Jurkat viability (%) (T lymphoma Jurkat cells; conc 0.00152588 uM): 59.9% and 53.6%
- Jurkat viability (%) (T lymphoma Jurkat cells; conc 0.00305176 uM): 41.7% and 44.0%
- Jurkat viability (%) (T lymphoma Jurkat cells; conc 0.00610352 uM): 34.2% and 31.7%
- Jurkat viability (%) (T lymphoma Jurkat cells; conc 0.012207 uM): 27.6% and 27.9%
- Jurkat viability (%) (T lymphoma Jurkat cells; conc 0.0244141 uM): 27.8% and 26.9%
- Jurkat viability (%) (T lymphoma Jurkat cells; conc 0.0488281 uM): 23.6% and 25.9%
- Jurkat viability (%) (T lymphoma Jurkat cells; conc 0.0976562 uM): 24.4%
- Jurkat viability (%) (T lymphoma Jurkat cells; conc 0.195312 uM): 26.3% and 22.8%
- Jurkat viability (%) (T lymphoma Jurkat cells; conc 0.390625 uM): 23.3%
- Jurkat viability (%) (T lymphoma Jurkat cells; conc 0.78125 uM): 22.7% and 23.1%
- Jurkat viability (%) (T lymphoma Jurkat cells; conc 1.5625 uM): 22.0%
- Jurkat viability (%) (T lymphoma Jurkat cells; conc 3.125 uM): 23.1% and 21.1%
- Jurkat viability (%) (T lymphoma Jurkat cells; conc 6.25 uM): 20.5% and 21.0%
- Jurkat viability (%) (T lymphoma Jurkat cells; conc 12.5 uM): 14.7% and 14.4%
- Jurkat viability (%) (T lymphoma Jurkat cells; conc 25 uM): 2.4% and 2.3%
- Jurkat viability (%) (T lymphoma Jurkat cells; conc 50 uM): 0.267% and 0.233%
